Reference: ChEMBL document CHEMBL5380844, “Discovery of a Novel, Potent, Orally Active, and Safe Inhibitor Targeting Human Mitochondrial RNA Polymerase” (J Med Chem, 2023)
Active and inactive are the calls of the source. The calls are words filed in the database; no cut-off is given here.

What was measured:
A2780 [1] = assay: Antiproliferative activity against human A2780 cells incubated for 168 hrs by SRB method; format: functional, cell-based; conditions: A2780, 168 h
A2780 [2] = assay: Inhibition of colony formation in human A2780 cells assessed as reduction in number of colonies at upto 500 nM incubated for 14 days by crystal violet staining based analysis; format: functional, cell-based; conditions: time 14.0 day
A2780 [3] = assay: Induction of cell cycle arrest in human A2780 cells assessed as accumulation of cells at G1 phase at 200 nM measured after 96 hrs by PI staining based flow cytometry analysis (reference value: 80.81%); format: functional
A2780 [4] = assay: Induction of cell cycle arrest in human A2780 cells assessed as accumulation of cells at S phase at 100 nM measured after 96 hrs by PI staining based flow cytometry analysis (reference value: 14.7%); format: functional
A2780 [5] = assay: Induction of cell cycle arrest in human A2780 cells assessed as accumulation of cells at S phase at 200 nM measured after 96 hrs by PI staining based flow cytometry analysis (reference value: 14.7%); format: functional
A2780 [6] = assay: Induction of cell cycle arrest in human A2780 cells assessed as accumulation of cells at G2 phase at 50 nM measured after 96 hrs by PI staining based flow cytometry analysis (reference value: 4.49%); format: functional
A2780 [7] = assay: Induction of apoptosis in human A2780 cells assessed as viable cells at 50 nM incubated for 96 hrs by Annexin-V/FITC and PI staining based flow cytometry analysis (reference value: 89.2%); format: functional; conditions: read-out: Activity
A2780 [8] = assay: Induction of apoptosis in human A2780 cells assessed as viable cells at 100 nM incubated for 96 hrs by Annexin-V/FITC and PI staining based flow cytometry analysis (reference value: 89.2%); format: functional; conditions: read-out: Activity
A2780 [9] = assay: Induction of apoptosis in human A2780 cells assessed as viable cells at 200 nM incubated for 96 hrs by Annexin-V/FITC and PI staining based flow cytometry analysis (reference value: 89.2%); format: functional; conditions: read-out: Activity
A2780 [10] = assay: Induction of apoptosis in human A2780 cells assessed as early apoptotic cells at 200 nM incubated for 96 hrs by Annexin-V/FITC and PI staining based flow cytometry analysis (reference value: 14.14%); format: functional
A2780 [11] = assay: Induction of apoptosis in human A2780 cells assessed as late apoptotic cells at 200 nM incubated for 96 hrs by Annexin-V/FITC and PI staining based flow cytometry analysis (reference value: 3.79%); format: functional
A2780 [12] = assay: Induction of intracellular ROS generation in human A2780 cells at upto 500 nM measured after 96 hrs by DCFH-DA staining based immunofluorescence assay; format: functional, cell-based
A2780 [13] = assay: Downregulation of NDUFB8 level in human A2780 cells by Western blot analysis; format: functional, cell-based; conditions: dose <= 500.0 nM
A2780 [14] = assay: Downregulation of UQCR level in human A2780 cells by Western blot analysis; format: functional, cell-based; conditions: dose <= 500.0 nM
A2780 [15] = assay: Effect on SDHB level in human A2780 cells at upto 500 nM by Western blot analysis; format: functional, cell-based
A2780 [16] = assay: Inhibition of MT-ND1 expression in human A2780 cells at 100 nM incubated for 12 hrs by RNA sequencing analysis; format: functional, cell-based
A2780 [17] = assay: Inhibition of MT-ND4 expression in human A2780 cells at 100 nM incubated for 12 hrs by RNA sequencing analysis; format: functional, cell-based
A2780 [18] = assay: Inhibition of MT-ATP8 expression in human A2780 cells at 100 nM incubated for 12 hrs by RNA sequencing analysis; format: functional, cell-based
MDA-MB-231 = assay: Antiproliferative activity against human MDA-MB-231 cells incubated for 168 hrs by SRB method; format: functional, cell-based; conditions: MDA-MB-231, 168 h
[19] = Apparent permeability across basolateral side to apical side in human Caco-2 cells at 3 uM incubated for 2 hrs by LC-MS/MS analysis; format: ADME, cell-based
Cytochrome P450 1A2 = target: T1, Cytochrome P450 1A2 (Homo sapiens, UniProt P05177); assay: Inhibition of CYP1A2 (unknown origin) using phenacetin as substrate in presence of NADPH by LC/MS/MS analysis; format: ADME
T1 sequence (P05177 whole entry): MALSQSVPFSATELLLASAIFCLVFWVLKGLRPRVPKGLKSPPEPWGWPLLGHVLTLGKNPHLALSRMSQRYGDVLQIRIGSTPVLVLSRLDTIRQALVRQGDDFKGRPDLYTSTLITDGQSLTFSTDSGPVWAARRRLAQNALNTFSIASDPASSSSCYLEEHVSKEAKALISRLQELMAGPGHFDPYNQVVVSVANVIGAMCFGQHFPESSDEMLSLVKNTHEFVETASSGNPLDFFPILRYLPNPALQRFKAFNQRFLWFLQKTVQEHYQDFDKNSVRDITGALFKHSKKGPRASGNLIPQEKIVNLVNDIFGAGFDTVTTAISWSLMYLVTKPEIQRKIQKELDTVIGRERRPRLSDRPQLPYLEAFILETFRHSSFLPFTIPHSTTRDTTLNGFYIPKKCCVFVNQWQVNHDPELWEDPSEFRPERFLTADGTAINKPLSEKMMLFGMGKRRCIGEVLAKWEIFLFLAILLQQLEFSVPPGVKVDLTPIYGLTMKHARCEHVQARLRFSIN

Cytochrome P450 3A4 = Cytochrome P450 3A4 (Homo sapiens, UniProt P08684); assay: Inhibition of […] (unknown origin) using midazolam as substrate in presence of NADPH by LC/MS/MS analysis; format: ADME
Chain of Cytochrome P450 3A4 (P08684 whole entry): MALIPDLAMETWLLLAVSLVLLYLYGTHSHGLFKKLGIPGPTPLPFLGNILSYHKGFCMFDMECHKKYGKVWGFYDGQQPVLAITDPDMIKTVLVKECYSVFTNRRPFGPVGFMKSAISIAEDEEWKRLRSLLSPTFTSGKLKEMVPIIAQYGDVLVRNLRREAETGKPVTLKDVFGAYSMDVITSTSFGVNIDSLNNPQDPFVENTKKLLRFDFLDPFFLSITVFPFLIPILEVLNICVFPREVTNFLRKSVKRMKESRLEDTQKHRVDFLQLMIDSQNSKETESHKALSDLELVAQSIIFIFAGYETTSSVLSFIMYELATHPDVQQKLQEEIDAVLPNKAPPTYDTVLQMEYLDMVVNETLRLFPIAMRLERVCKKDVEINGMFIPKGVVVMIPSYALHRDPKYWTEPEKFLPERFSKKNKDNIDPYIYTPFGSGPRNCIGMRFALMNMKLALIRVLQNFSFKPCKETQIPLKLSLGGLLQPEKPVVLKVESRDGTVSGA

Cytochrome P450 2D6 = Cytochrome P450 2D6 (Homo sapiens, UniProt P10635); assay: Inhibition of CYP2D6 (unknown origin) using bufuralol as substrate in presence of NADPH by LC/MS/MS analysis; format: ADME
Chain of Cytochrome P450 2D6 (P10635 whole entry): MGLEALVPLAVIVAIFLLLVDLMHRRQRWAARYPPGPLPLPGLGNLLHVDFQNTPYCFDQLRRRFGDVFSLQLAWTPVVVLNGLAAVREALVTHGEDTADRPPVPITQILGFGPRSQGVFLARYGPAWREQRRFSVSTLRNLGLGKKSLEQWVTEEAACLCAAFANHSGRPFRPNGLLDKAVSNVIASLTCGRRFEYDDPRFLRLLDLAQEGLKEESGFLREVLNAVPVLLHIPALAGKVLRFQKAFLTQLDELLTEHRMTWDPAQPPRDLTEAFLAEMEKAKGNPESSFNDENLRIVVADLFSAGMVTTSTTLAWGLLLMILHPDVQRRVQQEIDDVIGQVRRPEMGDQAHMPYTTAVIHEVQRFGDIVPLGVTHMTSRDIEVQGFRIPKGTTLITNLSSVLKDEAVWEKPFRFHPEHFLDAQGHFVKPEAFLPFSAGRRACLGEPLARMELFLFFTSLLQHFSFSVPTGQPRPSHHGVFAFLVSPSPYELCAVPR

[20] = Cmax in ICR mouse at 10 mg/kg, po measured upto 24 hrs by LC-MS/MS analysis; format: ADME, organism-based; parameters: time < 24 hrs, dose 10 mg/kg, route po; conditions: in vivo
[21] = AUC (0 to t) in ICR mouse at 10 mg/kg, po measured upto 24 hrs by LC-MS/MS analysis; format: ADME, organism-based; parameters: dose 10 mg/kg, time < 24 hrs, route po; conditions: in vivo
A2780 [22] = assay: Inhibition of mitochondrial transcript in human A2780 cells by RT-qPCR analysis; format: functional, cell-based; conditions: dose 0.01-1 µM
A2780 [23] = assay: Effect on 18S mRNA level in human A2780 cells by RT-qPCR analysis; format: functional, cell-based
A2780 [24] = assay: Effect on 5S mRNA level in human A2780 cells by RT-qPCR analysis; format: functional, cell-based
A2780 [25] = assay: Antitumor activity against human A2780 cells xenografted in BALB/c nude mouse model assessed as reduction in UQCRC2 level at 100 mg/kg, po by immunoblotting analysis; format: functional, organism-based
A2780 [26] = assay: Antitumor activity against human A2780 cells xenografted in BALB/c nude mouse model assessed as reduction in COX1 level at 100 mg/kg, po by immunoblotting analysis; format: functional, organism-based
A2780 [27] = assay: Antitumor activity against human A2780 cells xenografted in BALB/c nude mouse model assessed as induction of tumor shrinkage 100 mg/kg by H and E staining based immunohistochemical analysis; format: functional, organism-based
[28] = Toxicity in Balb/c mouse assessed as effect on liver at 100 mg/kg by H and E staining based analysis; format: organism-based; conditions: in vivo
[29] = Toxicity in Balb/c mouse assessed as effect on lung at 100 mg/kg by H and E staining based analysis; format: organism-based; conditions: in vivo

Cc1ccc(-c2cc(=O)oc3cc(O[C@H](C)C(=O)N4CC5CCC(C4)N5C)ccc23)c(C)c1
IC50 (A2780 [1]): 0.068 µM
inhibition (A2780 [2]): Active
Activity (A2780 [3]): 87.77%
Activity (A2780 [4]): 9.15%
Activity (A2780 [5]): 9.07%
Activity (A2780 [6]): 3.7%
viability at 0.05 µM (A2780 [7]): 92.3%
viability at 0.1 µM (A2780 [8]): 90.2%
viability at 0.2 µM (A2780 [9]): 90.7%
Activity (A2780 [10]): 0.73%
Activity (A2780 [11]): 4.58%
Activity (A2780 [12]): inactive
Activity (A2780 [13]): Dose-Dependent Effect
Activity (A2780 [14]): Dose-Dependent Effect
Activity (A2780 [15]): inactive
inhibition (A2780 [16]): Active
inhibition (A2780 [17]): Active
inhibition (A2780 [18]): Active
IC50 (MDA-MB-231): > 10 µM
Papp B→A at 2 h, 3 µM [19]: 8.3 ×10⁻⁶ cm/s
IC50 (Cytochrome P450 1A2): > 40 µM
IC50 (Cytochrome P450 3A4): > 40 µM
IC50 (Cytochrome P450 2D6): > 40 µM
Cmax [20]: 369 ng/mL
AUC(0-t) at 24 h [21]: 1830 ng·h/mL
inhibition (A2780 [22]): Dose-Dependent Effect
Activity (A2780 [23]): inactive
Activity (A2780 [24]): inactive
Activity (A2780 [25]): Active
Activity (A2780 [26]): Active
Activity (A2780 [27]): Active
Activity [28]: Non-Toxic
Activity [29]: Non-Toxic
